Data taken from US6083496A, “Polyamine transport inhibitors” (priority 1996, dated 2000).

Experiments:
[1] = tested on: polyamine transporter; test: Putrescine uptake ([3H]putrescine) in ZR-75-1 cells; assay type: cell-based, human; settings: FIG. 3
Description: (§1) J. Biol. […] Endocrinology 126: 3223-3231). […] Cell cultures were then washed twice with 1 ml PBS containing 5.7 mM sym-norspermidine. Cells were then lysed with 200-μl aliquot of 1 N NaOH and incubated for 30 minutes at 60° C. After neutralization with 200 μl of 1 N HCl, radioactivity was determined from a 250-μl of the cell lysate by scintillation counting. Uptake activity was expressed per amount of total cellular protein as determined by the method of Bradford (Bradford, M. M. 1976. Anal. Biochem. 72: 248-254). Non-specific binding of radioactive substrate was similarly determined in parallel for both cell lines after a 15 second-incubation with 400 μl of ice-cold uptake solution. […] Km, Ki and Vmax values were then estimated by Line-weaver-Burke analysis. For competitive inhibitors, Ki values were also estimated by measuring uptake activity in the presence of logarithmically increasing concentrations of antagonist, and using the Cheng-Prusoff equation (Cheng. Y. -C. and Prusoff, W. H. 1973. Biochem. Pharmacol. 22: 3099-3108) by iterative curve fitting for a sigmoidal curve. For mixed competitive/noncompetitive inhibition, two methods were used to calculate kinetic constants. […] C. 1976. Enzymes, 3rd Ed., Academic Press, San Diego, Calif.). […] C. 1976. Enzymes, 3rd Ed., Academic Press, San Diego, Calif.).

[2] = tested on: polyamine transporter; test: Spermidine uptake ([3H]spermidine) in ZR-75-1 cells; assay type: cell-based, human; settings: FIG. 3
Description: as §1

[3] = tested on: ZR-75-1 cells; test: Effect of inhibitors on cell proliferation (11 days, DNA content); assay type: cell-based, human; settings: 11 days
Description: Effect of Inhibitors on Cell Proliferation--For growth studies, ZR-75-1 cells were cultured in MEZR medium or in phenol red-free RPMI 1640 supplemented with 2 mM L-glutamine, 1 mM sodium pyruvate, 15 mM Hepes, antibiotics, 1 nM 17β-estradiol, 0.5 μg of bovine insulin per ml and 5% (v/v) charcoal-treated fetal bovine serum (SD medium), as indicated in the text. […] M. L. 1989. in The Physiology of Polyamines (Bachrach, U., and Helmer, Y. M. eds) Vol. I, pp. 203-229, CRC Press, Boca Raton). […] Endocrinology 126: 3223-3231). Medium was changed every other day in these experiments because of the slow reaction of the compound with an unknown component present in the IMEM and RPMI 1640 medium formulation.

[4] = tested on: polyamine transporter; settings: ZR-75-1 cells; compound as its own substrate; read-out: Km, spermine transport; cited from earlier work
[5] = secondary amino group of the spermine head; cited from earlier work

For `NCCCNCCCCNCCCN` [Spermine, N,N'-bis-[3-aminopropyl]-1,4-butane-diamine, reference compound], the “Ability to compete against [3H]putrescine uptake, fold higher than that of DESC” value [1] was “about 7 fold”, the “Ability to compete against [3H]spermidine uptake, fold higher than that of DESC” value [2] was “about 7 fold” and the “Effect on cell growth” value ([3]; 50 μM) was “acutely cytotoxic”. For the same compound, the “Influence of 1 mM aminoguanidine on the growth effect of the compound” value ([3]; spermine 50 μM, MESC 200 μM, DEASC 50 μM) was “only partly prevented by aminoguanidine”, the Km [4] was 0.2 ± 0.06 µM and the pKa [5] was 8.9-9.8.
